Experimental data as given in US20240076299A1, “TUBERCULATIN ANALOGS AS ANTIVIRAL AGENTS” (priority 2020, published 2024).
pEC50, pIC50: −log10 of the molar value. Like-named read-outs stand apart in the source and are kept apart here.

Legend:
[1] = system: HIV; assay: microbe, parasite or virus in culture; type: cell-based, HIV-1
[2] = system: A549 cells; conditions: human, 2 days
[3] = Cytotoxicity evaluation using the SRB assay; conditions: human, triplicate
[4] = system: SARS-CoV-2; assay: microbe, parasite or virus in culture; conditions: for inhibition at 2 µM: Severe acute respiratory syndrome coronavirus 2, 48 h
[5] = in vitro; conditions: human
[6] = system: AIV; assay: microbe, parasite or virus in culture; type: cell-based, avian influenza virus (H5N1); conditions: Influenza A virus, read-out: EC50 (nM) AIV
[7] = system: VSV; assay: microbe, parasite or virus in culture; type: cell-based; conditions: Vesicular stomatitis virus, read-out: EC50 (nM) VSV
[8] = system: SARS-CoV-2
[9] = CC50 (nM), Table 1, inhibition of cell growth of host A549 cells by 50%
[10] = read-out: EC50 (2000 nM) SARS-COV-2, % inhibitory effect at 2000 nM against SARS-CoV-2, triplicate
[11] = read-out: EC50 (2000 nM) SARS-COV-2
[12] = A549 cells, CC50 (nM) A549, Table 2, host A549 cells
[13] = A549 cells, CC50 (nM), Table 1, inhibition of cell growth of host A549 cells by 50%
[14] = CC50 (nM) A549, Table 2, host A549 cells

| Compound | pEC50 ([1]; Human immunodeficiency virus 1) | CC50 at 2 days [3, 9] [nM] | inhibition at 2 µM [4, 10] [%] | EC50 [6] [nM] | EC50 [7] [nM] | other results |
| --- | --- | --- | --- | --- | --- | --- |
| COc1cc2c(OC3OCC(O)(COC4OCC(O)C(O)C4O)C3OC3OCC(O)C(OC4OCC(O)(CO)C4O)C3O)c3c(c(-c4cc5c(cc4O)OCO5)c2cc1OC)C(=O)OC3 (single isomer, unassigned) [Compound 54] | – | – | – | – | – | pEC50 [1]: < 4.60; CC50 [2]: > 25000 nM |
| Cc1ccnc2c1NC(=O)c1cccnc1N2C1CC1 [Nevirapine, reference compound] | 7.45 | > 200 | – | – | – | – |
| COc1cc2c(OC3OCC(O)(COC4OCC(O)C(O)C4O)C3OC3OCC(O)C(O)C3O)c3c(c(-c4cc5c(cc4O)OCO5)c2cc1OC)C(=O)OC3 (single isomer, unassigned) [Compound 51] | 4.80 | > 25000 | – | – | – | antiviral activity of R atropisomer versus corresponding S atropisomer [1]: much more potent antiviral activities |
| COc1cc2c(O[C@H]3OC[C@@]4(CN(C)C)OC(C)(C)O[C@@H]34)c3c(c(-c4ccc5c(c4)OCO5)c2cc1OC)C(=O)OC3 [Compound 31] | 6.75 | 1400 | 91.9 | – | – | – |
| COc1cc2c(O[C@H]3OC[C@@]4(CN5CCOCC5)OC(C)(C)O[C@@H]34)c3c(c(-c4ccc5c(c4)OCO5)c2cc1OC)C(=O)OC3 [Compound 30] | 7.74 | – | – | – | – | CC50 at 2 days ([5]; CC50 (nM)): 1190 nM; inhibition at 2 µM [4, 11]: 92.7% |
| COc1cc2c(O[C@H]3OC[C@@]4(CO)OC(c5ccccc5)O[C@@H]34)c3c(c(-c4ccc5c(c4)OCO5)c2cc1OC)C(=O)OC3 (stereo partly drawn) [Compound 18] | 8.13 | – | 98.3 | 0.71 | 2.43 | CC50 at 2 days [3, 12]: 208 nM; CC50 at 2 days [3, 13]: 184 nM |
| COc1cc2c(OC3OCC(O)(COC4OCC(O)C(O)C4O)C3OC3OCC(O)C(OC4OCC(O)(CO)C4O)C3O)c3c(c(-c4cc5c(cc4O)OCO5)c2cc1OC)C(=O)OC3 (single isomer, unassigned) [Compound 53] | 4.83 | – | – | – | – | antiviral activity of R atropisomer versus corresponding S atropisomer [1]: much more potent antiviral activities; CC50 at 2 days ([5]; CC50 (nM)): > 25000 nM |
| COc1cc2c(O[C@@H]3OC[C@@]4(CO)OC(c5ccccc5)O[C@@H]34)c3c(c(-c4cc5c(cc4OCc4ccccc4)OCO5)c2cc1OC)C(=O)OC3 (stereo partly drawn) [Compound 43] | < 4.60 | – | – | – | – | CC50 at 2 days [3, 13]: > 25000 nM |
| COc1cc2c(O[C@H]3OC[C@](O)(CO)[C@H]3O)c3c(c(-c4ccc5c(c4)OCO5)c2cc1OC)C(=O)OC3 [Compound 19] | 7.92 | 368 | 98.3 | 70 | 144 | CC50 at 2 days [3, 14]: 2100 nM |
| COc1cc2c(O[C@H]3OC[C@@]4(CNC(C)=O)OC(C)(C)O[C@@H]34)c3c(c(-c4ccc5c(c4)OCO5)c2cc1OC)C(=O)OC3 [Compound 32] | 7.09 | – | – | – | – | activity against SARS-CoV-2 (conclusion) [8]: active molecules; CC50 at 2 days ([5]; CC50 (nM)): 441 nM; inhibition at 2 µM [4, 11]: 97.4% |
| CCOC(=O)c1c(CSc2ccccc2)n(C)c2cc(Br)c(O)c(CN(C)C)c12 [arbidol, reference compound] | – | – | – | – | – | pIC50 ([4]; Severe acute respiratory syndrome coronavirus 2, HepG2, read-out: IC50 against SARS-CoV-2 pseudovirion): 5.28 |
| COc1cc2c(O[C@@H]3OC[C@@]4(COC(C)=O)OC(C)(C)O[C@@H]34)c3c(c(-c4ccc5c(c4)OCO5)c2cc1OC)C(=O)OC3 [Compound 11] | 6.68 | 1260 | > 80 | – | – | activity against SARS-CoV-2 (conclusion) [8]: active molecules |
| COc1cc2c(OC3OCC(O)(CO)C3OC3OCC(O)C(O)C3O)c3c(c(-c4cc5c(cc4O)OCO5)c2cc1OC)C(=O)OC3 (single isomer, unassigned) [Compound 49] | – | – | – | – | – | pEC50 [1]: 5.26; antiviral activity of R atropisomer versus corresponding S atropisomer [1]: much more potent antiviral activities; CC50 at 2 days ([5]; CC50 (nM)): 23500 nM |
| COc1cc2c(OC3OCC(O)(CO)C3O)c3c(c(-c4cc5c(cc4O)OCO5)c2cc1OC)C(=O)OC3 (single isomer, unassigned) [Compound 48] | – | – | – | – | – | pEC50 [1]: < 4.60; CC50 [2]: > 25000 nM |
| COc1cc2c(OC3OC[C@@]4(CO[Si](c5ccccc5)(c5ccccc5)C(C)(C)C)OC(c5ccccc5)O[C@@H]34)c3c(c(-c4ccc5c(c4)OCO5)c2cc1OC)C(=O)OC3 (stereo partly drawn) [Compound 16] | 5.18 | – | 32.4 | – | – | CC50 at 2 days [3, 13]: > 20000 nM |
| COc1cc2c(O[C@H]3OC[C@@]4(CO)OC(C)(C)O[C@@H]34)c3c(c(-c4ccc5c(c4)OCO5)c2cc1OC)C(=O)OC3 [Compound 10] | 9.01 | 188 | 95.6 | 0.75 | 1.5 | CC50 at 2 days [3, 14]: 400 nM |

| Compound | pEC50 ([1]; Human immunodeficiency virus 1) | CC50 at 2 days [3, 9] [nM] | inhibition at 2 µM [4, 10] [%] | EC50 [6] [nM] | EC50 [7] [nM] | other results |
| --- | --- | --- | --- | --- | --- | --- |
| COc1cc2c(O[C@H]3OC[C@@]4(COC(=O)c5ccncc5)OC(C)(C)O[C@@H]34)c3c(c(-c4ccc5c(c4)OCO5)c2cc1OC)C(=O)OC3 [Compound 28] | 6.31 | – | – | 16.7 | 56.1 | CC50 at 2 days ([5]; CC50 (nM)): 2210 nM; CC50 at 2 days ([5]; CC50 (nM) A549): 560 nM; inhibition at 2 µM [4, 11]: 93% |
| COc1cc2c(O[C@H]3OC[C@@]4(COC(C)=O)OC(c5ccccc5)O[C@@H]34)c3c(c(-c4ccc5c(c4)OCO5)c2cc1OC)C(=O)OC3 (stereo partly drawn) [Compound 21] | 6.90 | 328 | 96.3 | 6.25 | 12 | CC50 at 2 days [3, 14]: 93 nM |
| COc1cc2c(O[C@H]3OC[C@@]4(COC(=O)c5ccccc5)OC(C)(C)O[C@@H]34)c3c(c(-c4ccc5c(c4)OCO5)c2cc1OC)C(=O)OC3 [Compound 27] | 6.42 | – | – | 16.9 | 20.8 | activity against SARS-CoV-2 (conclusion) [8]: active molecules; CC50 at 2 days ([5]; CC50 (nM)): 2220 nM; CC50 at 2 days ([5]; CC50 (nM) A549): 379 nM; inhibition at 2 µM [4, 11]: 93% |
| COc1cc2c(O[C@@H]3OC[C@@]4(CO)OC(c5ccccc5)O[C@@H]34)c3c(c(-c4ccc5c(c4)OCO5)c2cc1OC)C(=O)OC3 (stereo partly drawn) [Compound 17] | 6.60 | – | 66.2 | – | – | CC50 at 2 days [3, 13]: 2240 nM |
| COc1cc2c(O[C@H]3OC[C@@]4(CO)OC(c5ccccc5)O[C@@H]34)c3c(c(-c4cc5c(cc4OCc4ccccc4)OCO5)c2cc1OC)C(=O)OC3 (stereo partly drawn) [Compound 44] | < 4.60 | – | – | – | – | CC50 at 2 days [3, 13]: > 25000 nM |
| COc1cc2c(O[C@H]3OC[C@](O)(COC(C)=O)[C@H]3O)c3c(c(-c4ccc5c(c4)OCO5)c2cc1OC)C(=O)OC3 [Compound 23] | 7.36 | 736 | 96.7 | 0.3 | 1.24 | CC50 at 2 days [3, 14]: 158 nM |
| COc1cc2c(O[C@H]3OC[C@@]4(CN=[N+]=[N-])OC(C)(C)O[C@@H]34)c3c(c(-c4ccc5c(c4)OCO5)c2cc1OC)C(=O)OC3 [Compound 25] | 6.36 | – | > 80 | 0.72 | 4.52 | activity against SARS-CoV-2 (conclusion) [8]: active molecules; CC50 at 2 days [3, 12]: 648 nM; CC50 at 2 days [3, 13]: 1650 nM |
| COc1cc2c(O[C@H]3OC[C@@]4(COC(=O)c5cccnc5)OC(C)(C)O[C@@H]34)c3c(c(-c4ccc5c(c4)OCO5)c2cc1OC)C(=O)OC3 [Compound 29] | 7.04 | – | 95.6 | 8.66 | 19.9 | CC50 at 2 days [3, 12]: 483 nM; CC50 at 2 days [3, 13]: 381 nM |
| COc1cc2c(OC3OCC(O)(CO)C3O)c3c(c(-c4cc5c(cc4O)OCO5)c2cc1OC)C(=O)OC3 (single isomer, unassigned) [Compound 45] | – | – | – | – | – | pEC50 [1]: 5.56; antiviral activity of R atropisomer versus corresponding S atropisomer [1]: much more potent antiviral activities; CC50 at 2 days ([5]; CC50 (nM)): 46800 nM |
| COc1cc2c(O[C@H]3OC[C@@]4(CN)OC(C)(C)O[C@@H]34)c3c(c(-c4ccc5c(c4)OCO5)c2cc1OC)C(=O)OC3 [Compound 26] | 6.04 | 4550 | > 80 | 0.79 | 0.58 | activity against SARS-CoV-2 (conclusion) [8]: active molecules; CC50 at 2 days [3, 14]: 2.66 nM |
| COc1cc2c(OC3OC[C@@]4(CO[Si](c5ccccc5)(c5ccccc5)C(C)(C)C)OC(c5ccccc5)O[C@@H]34)c3c(c(-c4cc5c(cc4OCc4ccccc4)OCO5)c2cc1OC)C(=O)OC3 (stereo partly drawn) [Compound 42] | < 4.60 | – | – | – | – | CC50 at 2 days [3, 13]: > 25000 nM |
| COc1cc2c(O[C@@H]3OC[C@@]4(COC(C)=O)OC(c5ccccc5)O[C@@H]34)c3c(c(-c4ccc5c(c4)OCO5)c2cc1OC)C(=O)OC3 (stereo partly drawn) [Compound 20] | 6.55 | 2580 | > 80 | 39.9 | 53.8 | activity against SARS-CoV-2 (conclusion) [8]: active molecules; CC50 at 2 days [3, 14]: 1570 nM |
| COc1cc2c(O)c3c(c(-c4ccc5c(c4)OCO5)c2cc1OC)C(=O)OC3 [Diphyllin (7), diphyllin, reference compound] | 6.77 | – | – | 2.36 | 11.2 | CC50 at 2 days ([5]; CC50 (nM)): 2460 nM; CC50 at 2 days ([5]; CC50 (nM) A549): 1980 nM; inhibition at 2 µM [4, 11]: 94.6% |
| COc1cc2c(O[C@@H]3OC[C@@]4(CO)OC(C)(C)O[C@@H]34)c3c(c(-c4ccc5c(c4)OCO5)c2cc1OC)C(=O)OC3 [Compound 9] | 7.46 | 1180 | > 80 | – | – | activity against SARS-CoV-2 (conclusion) [8]: active molecules |
| COc1cc2c(O[C@H]3OC[C@@]4(COC(C)=O)OC(C)(C)O[C@@H]34)c3c(c(-c4ccc5c(c4)OCO5)c2cc1OC)C(=O)OC3 [Compound 12] | 7.57 | 472 | 96.3 | – | – | activity against SARS-CoV-2 (conclusion) [8]: active molecules |
